Assay results from patent publication US9597407B2, “Targeted antimicrobial moieties” (C3 Jian, Inc., priority 2009, dated 2017).
Entries after “also recorded” stand apart in the source; their conditions may differ.

test system: bacteria; experiment: Binding of targeting peptides to microorganisms (Table 3); conditions: microorganism bound by the targeting peptide; binding in aqueous buffers chosen by peptide solubility, preferably 1x PBS

Row | Substance | Target(s)
1 | PF-348 (ESASAAEWYNPNMNVKKAICMG; Peptide with targeting and/or antimicrobial activity) | B. subtilis; also recorded: E. coli; also recorded: P. aeruginosa; also recorded: C. albicans; also recorded: E. faecalis; also recorded: C. jejuni
2 | PF-368 (MLKQTA; Peptide with targeting and/or antimicrobial activity) | C. jeikeium; also recorded: C. jejuni
3 | PF-183 (KPGISVENRQ; Peptide with targeting and/or antimicrobial activity) | S. epidermidis and M. luteus and E. coli and C. albicans and MRSA and E. faecalis and C. jeikeium
4 | PF-229 (DPILIQIGFTRFALRKAEAEKIEIQVEEGVPA; Peptide with targeting and/or antimicrobial activity) | S. epidermidis; also recorded: M. luteus; also recorded: P. aeruginosa; also recorded: A. baumannii
5 | PF-340 (VKDVLLELFNKIIGA; Peptide with targeting and/or antimicrobial activity) | S. mutans; also recorded: E. coli
6 | PF-295 (NIQVYESECGNYIFKKSDESFLIDIFDKNGTH; Peptide with targeting and/or antimicrobial activity) | C. difficile
7 | PF-325 (LTIDEKLRNHR; Peptide with targeting and/or antimicrobial activity) | S. mutans; also recorded: E. coli
8 | PF-232 (FDQLYALEREGKLDELLA; Peptide with targeting and/or antimicrobial activity) | S. epidermidis; also recorded: M. luteus
9 | PF-197 (CNALLRRGHPPSAL; Peptide with targeting and/or antimicrobial activity) | S. epidermidis; also recorded: M. luteus; also recorded: C. albicans; also recorded: E. faecalis; also recorded: C. jejuni
10 | PF-275 (LVSGVANTVKNTAHTVGNTAKHAGHVAADTTVKATKKQQVK; Peptide with targeting and/or antimicrobial activity) | S. mutans
11 | PF-150 (EIQAKGTG; Peptide with targeting and/or antimicrobial activity) | S. epidermidis and MRSA
12 | PF-182 (LPATRDKTRVPASVAGAP; Peptide with targeting and/or antimicrobial activity) | S. epidermidis; also recorded: M. luteus; also recorded: E. coli; also recorded: E. faecalis; also recorded: C. jeikeium
13 | PF-130 (LQRSDEESMPRRHEKYS; Peptide with targeting and/or antimicrobial activity) | E. faecalis; also recorded: C. jeikeium; also recorded: C. jejuni
14 | PF-141 (VVRRFQGM; Peptide with targeting and/or antimicrobial activity) | S. epidermidis and M. luteus and C. albicans and MRSA and C. jeikeium

same assay, conditions: microorganism the targeting peptide binds; binding in aqueous buffers that varied with peptide solubility, preferably 1x PBS

Row | Substance | Target(s)
15 | 1T-288 (RWVGGEPSADIYLSAKDTKT; Peptide with targeting and/or antimicrobial activity) [Peptide 1T-288] | F. nucleatum; also recorded: S. gordonii; also recorded: S. salivarious; also recorded: S. sanguinis
16 | 1T-282 (ISLVFPAYT; Peptide with targeting and/or antimicrobial activity) [Peptide 1T-282] | F. nucleatum; also recorded: P. gingivalis; also recorded: S. gordonii; also recorded: S. mitis; also recorded: S. mutans; also recorded: S. oralis; also recorded: S. salivarious; also recorded: S. sanguinis
17 | PF-016 (RKQYDDLSFNFLY; Peptide with targeting and/or antimicrobial activity) | S. epidermidis; also recorded: E. faecalis; also recorded: C. jeikeium
18 | 1T-192 (ILVLLALQVELDSKFQY; Peptide with targeting and/or antimicrobial activity) [Peptide 1T-192] | S. sanguinis
19 | TT-309 (EPLPLTKYDKKDTEMKKVFKEILAGKVGYEKEEE; Peptide with targeting and/or antimicrobial activity) | F. nucleatum
20 | 1T-222 (RIEASLISAIMFSMFNAIVKFLQK; Peptide with targeting and/or antimicrobial activity) [Peptide 1T-222] | F. nucleatum; also recorded: S. sanguinis
21 | 1T-301 (SKLPRVLDASLKL; Peptide with targeting and/or antimicrobial activity) [Peptide 1T-301] | F. nucleatum; also recorded: S. gordonii; also recorded: S. sanguinis

same assay, conditions: peptide binding in aqueous buffers that varied depending on peptide solubility; preferably 1x PBS

Row | Substance | Target(s) (microorganism bound by the targeting peptide) | Target(s) (microorganisms bound by the targeting peptide)
22 | PF-777 (PGADGKLAEASAAIARLVRS; Peptide with targeting and/or antimicrobial activity) | Mycobacteria spp. | 
23 | PF-486 (MQKEGEEDY; Peptide with targeting and/or antimicrobial activity) |  | S. mutans
24 | PF-S029 (TSDTQSQSPWLFDNADIVNIYPVQLMHSSDND; Peptide with targeting and/or antimicrobial activity) | M. luteus; also recorded: P. mirabilis; also recorded: E. coli; also recorded: C. albicans; also recorded: C. jeikeium; also recorded: C. jejuni | 
25 | PF-C134 (NELMKYPATLTATATTPGIKYSHLCSVCL; Peptide with targeting and/or antimicrobial activity) | A. naeslundii; also recorded: F. nucleatum; also recorded: P. gingivalis; also recorded: S. mutans; also recorded: T. denticola | 
26 | PF-728 (AIGQEQDRREYYYYSGYPYYY; Peptide with targeting and/or antimicrobial activity) | S. mutans; also recorded: E. coli | 
27 | PF-S023 (MAEDERRALKRRTNRGRTRTRKRITV; Peptide with targeting and/or antimicrobial activity) | S. epidermidis and MRSA | 
28 | PF-388 (ITPLLDEIGKVCIDKISK; Peptide with targeting and/or antimicrobial activity) |  | E. faecalis; also recorded: C. jeikeium; also recorded: C. jejuni
29 | PF-772 (TKESSS; Peptide with targeting and/or antimicrobial activity) | S. epidermidis and C. albicans and MRSA and S. pneumoniae and C. jeikeium | 
30 | PF-C050 (QGLARPVLRRIPL; Peptide with targeting and/or antimicrobial activity) | A. naeslundii; also recorded: S. mutans | 
31 | PF-773 (TLKESK; Peptide with targeting and/or antimicrobial activity) | S. epidermidis; also recorded: C. albicans; also recorded: C. jeikeium | 
32 | PF-C003 (FCSVDHDVITIAADHVKQGAEA; Peptide with targeting and/or antimicrobial activity) | A. naeslundii; also recorded: P. gingivalis; also recorded: S. mutans | 

same assay, conditions: peptide binding in aqueous buffers varied by peptide solubility; preferably 1x PBS

Row | Substance | Target(s) (microorganism bound by the targeting peptide)
33 | 1T-79 (FGTPWSITNFWKKNFNDRPDFDSDRRRY; Peptide with targeting and/or antimicrobial activity) [Peptide 1T-79] | S. pneumoniae
34 | 1T-62 (GCKGCAQRDPCAEPEPYFRLR; Peptide with targeting and/or antimicrobial activity) [Peptide 1T-62] | S. epidermidis; also recorded: P. aeruginosa
35 | 1T-29 (GSVIKKRRKRMSKKKHRKMLRRTRVQRRKLGK; Peptide with targeting and/or antimicrobial activity) [Peptide 1T-29] | S. epidermidis; also recorded: C. jeikeium; also recorded: C. xerosis; also recorded: C. striatum; also recorded: P. aeruginosa; also recorded: S. mutans; also recorded: S. aureus
36 | 1T-71 (KIDTNQWPPNKEG; Peptide with targeting and/or antimicrobial activity) [Peptide 1T-71] | P. aeruginosa
37 | 1T-20 (PALVDLSNKEAVWAVLDDHS; Peptide with targeting and/or antimicrobial activity) [Peptide 1T-20] | S. mutans; also recorded: P. aeruginosa
38 | 1T-93 (AMRSVNQA; Peptide with targeting and/or antimicrobial activity) [Peptide 1T-93] | S. epidermidis; also recorded: S. gordonii; also recorded: S. mitis; also recorded: S. mutans; also recorded: S. oralis; also recorded: S. sanguinis
39 | 1T-16 (IDMR; Peptide with targeting and/or antimicrobial activity) [Peptide 1T-16] | P. aeruginosa
40 | 1T-82 (FGVGVGIALFMAGYAIGKDLRKKFGKSC; Peptide with targeting and/or antimicrobial activity) [Peptide 1T-82] | S. pneumoniae
41 | 1T-125 (DAITGGNPPLSDTDGLRP; Peptide with targeting and/or antimicrobial activity) [Peptide 1T-125] | S. epidermidis; also recorded: S. gordonii; also recorded: S. mutans; also recorded: S. oralis
42 | 1T-81 (AIATGLDIVDGKFDGYLWA; Peptide with targeting and/or antimicrobial activity) [Peptide 1T-81] | S. pneumoniae
43 | 1T-4 (LDAYGELVGGN; Peptide with targeting and/or antimicrobial activity) [Peptide 1T-4] | S. gordonii; also recorded: S. sanguinis; also recorded: S. oxalis; also recorded: V. atypica; also recorded: L. casei; also recorded: S. mutans
44 | 1T-78 (FFKTIFVLILGALGVAAGLYIEKNYIDK; Peptide with targeting and/or antimicrobial activity) [Peptide 1T-78] | S. pneumoniae
45 | 1T-63 (EPLILKELVRNLFLFCYARALR; Peptide with targeting and/or antimicrobial activity) [Peptide 1T-63] | S. aureus; also recorded: S. epidermidis; also recorded: C. jeikeium; also recorded: C. xerosis; also recorded: C. striatum; also recorded: P. aeruginosa
